Assay results published in the METLIN SMRT retention time set (Domingo-Almenara et al. 2019).

Assay: gradient 5% acetonitrile 3 min, to 50% in 2 min, to 85% in 15 min, held 3 min, 100 µL/min
Conditions: column: Zorbax Extend-C18 2.1 x 50 mm; eluents: water / acetonitrile, 0.1% formic acid
Summary of the method: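 Retention times of pure standards were taken from adduct peaks that were selected by computer and manually inspected. Over 3 months, mixtures of ~100 molecules were run by HPLC–quadrupole time-of-flight mass spectrometry in positive and negative ionization mode. The Zorbax Extend-C18 column (2.1 × 50 mm, 1.8 μm) ran at 100 μL/min in water and acetonitrile, each containing 0.1% formic acid, with 40 μL dead volume and 900 μL dwell volume.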

Row | Structure (SMILES) | RP-LC retention time [s]
1 | CCN(Cc1ccccc1)c1ccc(-c2noc(CN3CCN(C)CC3)n2)cn1 | 670
2 | Cc1cc(C)c(S(=O)(=O)N2CCC[C@@H]2C(=O)NCCc2csc(C)n2)c(C)c1 | 814
3 | COc1ccc(CC(=O)N(C)CC2(C)CCOCC2)cc1Cl | 818
4 | COc1ccc(-n2c(=O)c(C(=O)Nc3cccc(F)c3)c(O)c3cccnc32)cc1 | 1250
5 | CCCCNC(=O)Cn1nc2c3cc(-c4ccc(C)c(C)c4)nn3ccn2c1=O | 924
6 | COc1ccc(-c2ccc3nc(N4CCC(C(=O)N5CCOCC5)CC4)sc3n2)cc1 | 822
7 | COc1ccc(N2CC(c3noc(-c4cc(OC)c(OC)c(OC)c4)n3)CC2=O)cc1 (stereo not drawn) | 787
8 | COc1ccc(CNC(=O)C2CCCN(c3cnc4nc(C)c(C)nc4c3)C2)cc1 (stereo not drawn) | 710
9 | O=C(CSc1ccc(N2CCOCC2)nn1)Nc1ccc(F)cc1F | 669
10 | C=CCn1c2ccccc2c2nnc(SCC(=O)Nc3nc(-c4ccccc4)cs3)nc21 | 1050
11 | CCc1nc(-c2csc(S(=O)(=O)N3CCCC(C(=O)NCc4ccc(F)cc4)C3)c2)no1 (stereo not drawn) | 976
12 | Cc1cc(OCC(=O)Nc2ccc(Cl)cc2F)nc(N2CCN(c3ccccc3)CC2)n1 | 945
13 | Cc1nc(N2CCN(C(=O)CCCc3ccccc3)CC2)cc(-n2cccn2)n1 | 928
14 | O=C(CCCn1c(=O)c2cccn2c2ccccc21)N1CCN(c2ccccn2)CC1 | 625
15 | CC1CCCC(NC(=O)Cn2cnc3c(nc4n3CCCCC4)c2=O)C1C (stereo not drawn) | 711
16 | Cc1ccccc1N1CCN(C(=O)c2cn(-c3cc(N4CCSCC4)ncn3)cn2)CC1 | 1040
17 | O=C(CCn1c(N2CCCC2)nc2ccsc2c1=O)N1CCN(c2ccccc2)CC1 | 814
18 | Cc1cc(F)ccc1NC(=O)C1CCN(c2cnc3ccccc3n2)CC1 | 780
19 | CCOc1ccc(CNC(=O)C2CCCN(c3nn4c(=O)c5c(nc4s3)CCCC5)C2)cc1OC (stereo not drawn) | 737
20 | COc1ccc(NC(=O)C2CCCN(c3nc4ccccc4nc3C(F)(F)F)C2)cc1OC (stereo not drawn) | 1060
21 | CCC(c1cccs1)N1C(=O)[C@H]2CN(S(=O)(=O)Cc3ccccc3)C[C@H]2C1=O (stereo partly drawn) | 964
22 | O=C(C1CCN(c2cc(N3CCCCC3)ncn2)CC1)N1CCSCC1 | 628

Row | Structure (SMILES) | RP-LC retention time [s]
23 | O=C(c1cccnn1)N1CC(F)(F)C[C@H]1c1nnc(-c2ccccc2)o1 | 746
24 | COc1ccc(-c2cc3c4nn(CC(=O)Nc5cccc(C)c5C)c(=O)n4ccn3n2)cc1 | 840
25 | O=C(c1ccncc1)N1CC(C(=O)N2CCSCC2)C2(CCCCC2)C1 (stereo not drawn) | 620
26 | COc1ccc(-c2noc(Cc3nnc(-c4ccc(F)cc4)o3)n2)cc1OC | 889
27 | O=S(=O)(CCCOc1ccc(F)cc1)NCc1ccccn1 | 645
28 | Cc1[nH]c(-c2ccccc2)cc1C(=O)NC1CCCCC1 | 898
29 | CCN1C(=O)C2CC3(CCN(C(=O)CN4CCCC4=O)CC3)CN2C1=O (stereo not drawn) | 600
30 | CCc1cccc(Nc2c(C(=O)N3CCCCC3C)cnc3nc(C)ccc23)c1 (stereo not drawn) | 677
31 | CCSc1nc2ccc(NS(=O)(=O)c3cc(C)ccc3C)cc2s1 | 1070
32 | Cc1nc2c(c(=O)n1CC(=O)NCc1cccs1)CCN(Cc1ccccc1)C2 | 608
33 | CCCN1C(=O)C(CC(=O)NCCN(C)C)Sc2ncccc21 (stereo not drawn) | 588
34 | Cc1ccc(CN2C[C@@H]3C(=O)N(Cc4ccc5c(c4)OCO5)C(=O)[C@@H]3C2)cc1C | 691
35 | CCCN1C(=O)c2c(C(=O)NCc3ccccc3F)ncn2CC1(C)C(=O)NCCC(C)C (stereo not drawn) | 836
36 | Cc1cc(S(=O)(=O)N2CCc3c(c(-c4nnc(-c5ccccc5)o4)nn3C)C2)ccc1F | 703
37 | CCCN1C(=O)COc2ccc(-c3noc(-c4ccc(Cl)cc4OC)n3)cc21 | 1260
38 | COc1ccc(C2Cn3cnc(C(=O)N4CCC(C(=O)NCC(C)C)CC4)c3CO2)cc1 (stereo not drawn) | 724
39 | CCOc1ccc(C(=O)NC2(c3nc(C(C)C)no3)CCCCC2)cc1OCC | 1060
40 | O=C(Nc1c(F)cccc1F)N1CCc2nc(-c3ccc(Cl)cc3)ncc2C1 | 954
41 | O=C(Nc1cccc(Br)c1)N1CCc2nc(-c3ccccc3)ncc2C1 | 1030
42 | Cc1cc(OCC(=O)Nc2ccc3c(c2)OCO3)nc(N2CCN(c3ccccc3)CC2)n1 | 776
43 | O=c1c2cnn(-c3ccc(Br)cc3)c2ncn1Cc1nc(-c2ccccc2)no1 | 1150
44 | COc1ccc(Cl)cc1NS(=O)(=O)c1cc2n(c1)CCCN(C)C2=O | 724

Row | Structure (SMILES) | RP-LC retention time [s]
45 | COCc1cn(CC2CCCN(Cc3cn(C(C)C)c4ccc(OC)cc34)C2)nn1 (stereo not drawn) | 648
46 | CCN1CCN(c2cc(C)c3cc(NC(=O)C(c4ccccc4)C4CCCC4)ccc3n2)CC1 (stereo not drawn) | 646
47 | CCOC(=O)c1noc2ncnc(NC3CCCc4ccccc43)c12 (stereo not drawn) | 1120
48 | C=CCN1CCN(C(=O)c2ccc3c(c2)Sc2ncccc2C(=O)N3CC)CC1 | 564
49 | CCN1CCN(c2cc(C)c3cc(NC(=S)NC4CCCC4)ccc3n2)CC1 | 572
50 | O=C(Nc1ccc(Oc2ccc(NC(=O)Nc3ccccc3Cl)cc2)cc1)Nc1ccccc1Cl | 1250
51 | CCOC(=O)N1CCN(S(=O)(=O)c2cc(N3C(=O)CCS3(=O)=O)ccc2C)CC1 | 729
52 | Cc1ccc(Cn2cccc2C(=O)C(=O)NC2CC2)cc1 | 928
53 | Cc1nn(C)cc1S(=O)(=O)NCCc1c[nH]c2ccccc12 | 683
54 | CCN1C(=O)c2ccccc2Oc2ccc(C(=O)NCc3ccc(C)o3)cc21 | 910
55 | Cc1ccc(-c2nnc(N3CCC(C(=O)NCc4cccs4)CC3)o2)cc1 | 933
56 | CC(C)c1nc(-c2ccc(OC3CCN(S(=O)(=O)c4cn(C)cn4)C3)cc2)no1 (stereo not drawn) | 853
57 | CCN(CC)S(=O)(=O)c1ccc(Cl)c(-c2nnc(-c3cccc(C)c3)o2)c1 | 1170
58 | Cc1cc(=O)n(CC(=O)NCc2ccc(F)cc2)c(N2CCOCC2)n1 | 647
59 | CN(CC1CCOCC1)C(=O)Nc1ccc2c(c1)OCCO2 | 670
60 | COCCCN(CC(=O)N1CCNCC1)C(=O)c1ccc(Br)cc1 | 603
61 | CCCS(=O)(=O)N1CCC2(CC1)C(OC)CN2c1cccc(F)c1 (stereo not drawn) | 1040
62 | Cc1ccnc(NC(=O)NCCCSc2nccc(C)n2)n1 | 643
63 | CC(C)Oc1ccc(-c2noc(Cn3c(=O)n(C(C)C)c(=O)c4ccccc43)n2)cc1 | 1140
64 | O=C(CSC1CCc2ccccc2NC1=O)Nc1ccccc1 (stereo not drawn) | 777
65 | CCOC(=O)c1c(S(=O)(=O)N2CCC(C(=O)N3CCCC3)CC2)c(C)n(C)c1C | 706
66 | Cc1nc(C#Cc2cccnc2)cs1 | 747

Row | Structure (SMILES) | RP-LC retention time [s]
67 | CS(=O)(=O)N1CCC(OC2CCN(C(=O)Nc3c(F)cccc3F)CC2)CC1 | 688
68 | Cc1cc(C)c2c(N3CCCC3)nc(C(=O)Nc3ccc(N4CCOCC4)cc3)nc2n1 | 612
69 | Cc1ccc(C(=O)N2C[C@@H](F)C[C@H]2C(=O)N2CCOCC2)cc1 | 621
70 | CCc1nc(-c2csc(S(=O)(=O)N3CCC(C(=O)NCc4cccc(C)c4)CC3)c2)no1 | 970
71 | CCCNC(=O)C1CCCN(c2nc3ncn(CC(=O)Nc4ccc(CC)cc4)c(=O)c3s2)C1 (stereo not drawn) | 741
72 | COc1ccc(Cl)cc1NC(=O)NCC1CN(CC2CC2)CC12CCCCC2 (stereo not drawn) | 786
73 | COc1ccc(NC(=O)C2CCN(C(=O)C3Sc4ccccc4NC3=O)CC2)c(OC)c1 (stereo not drawn) | 754
74 | CC(C)(C)c1ccc(C(=O)N(Cc2ccc(Br)o2)C2CCS(=O)(=O)C2)cc1 (stereo not drawn) | 1110
75 | COC(=O)c1cc2n(n1)CC(C)(C(=O)NC1CCC(C)CC1)N(Cc1ccccc1)C2=O (stereo not drawn) | 816
76 | COc1ccc(Cl)cc1NC(=O)Cn1cccc(-c2nc(-c3ccc(OC)c(OC)c3)no2)c1=O | 887
77 | Cc1nccn1CCNC(=O)C(=O)Nc1ccc2c(c1)N(C(=O)C(C)C)CCC2 | 571
78 | O=C(NC1CCCN(c2cc(-c3ccncc3)[nH]n2)C1)c1cccc(F)c1 (stereo not drawn) | 593
79 | COc1ccc(/C=C/c2ccccc2F)cc1 | 1170
80 | Cn1c(C(=O)NCCCN2CCC(Cc3ccccc3)CC2)cc2c(=O)n(C)c3ccccc3c21 | 707
81 | c1ccc(-c2cn3ccccc3n2)cc1 | 644
82 | CCc1ccc(NC(=O)c2ccc(=O)n(CCN3CCCC3)c2)cc1 | 650
83 | CCOC(=O)c1c(C)c(CCC(=O)N2CCCCCC2)n(CC)c1C | 985
84 | Cc1cc(=O)n(CC(=O)Nc2cccc(Br)c2)c(N2CCOCC2)n1 | 705
85 | CCc1noc(-c2cccnc2N2CCCN(Cc3ccc(F)cc3Cl)CC2)n1 | 700
86 | CCc1ccc(-c2noc(-c3nnn(Cc4nc(-c5ccccc5OC)oc4C)c3C)n2)cc1 | 1270
87 | CC1CCN(C(=O)Cn2nc(-c3nc(-c4cccc(Cl)c4)no3)ccc2=O)CC1 | 1040
88 | COc1ccc(N2CCN(c3cc(SCC(=O)Nc4ccc(C)cc4)ncn3)CC2)cc1 | 966
